Experimental data as given in patent US20050053625A1, “Method of treating viral infections” (priority 2001, published 2005).

Experiments:
[1] = system: liver cells; details: cited from earlier work
[2] = system: 2.2.15 cells; assay: Selectivity index (CC90/IC90), MHBs secretion and MTT on 2.2.15 cells; format: cell-based
Text: Selectivity index and cytotoxicity assessment. The concentration of compound needed to reduce the amount of MHBs present in the culture medium (of MHBs producing cells) by 90%, relative to untreated or placebo treated controls will be considered to be the IC90 (inhibitory concentration, 90). The toxicity of the compounds to the tissue cultures will initially be determined the MTT assay, as described in (Lu et al., 1997). Briefly, the amount of MTT enzyme functional in the same sets of cells used for determination of the ability of a compound to reduce the secretion of MHBs (see above) will be measured. Thus, the impact of a compound upon cell viability will be assessed in the same cells in which MHBs reductions have been determined. The concentration of compound that results in a reduction of MTT activity (compared to untreated cultures) of 90% will be considered to be the CC90. The selectivity index will be expressed as the CC90 divided by the IC90. Using these criteria, as determined by assays on 2.2.15 cells under the conditions described in prelim. evidence, the selectivity index of NNDNJ is approximate 100. Thus, compounds will be considered attractive if they have a selectivity index of greater than 100.

[3] = system: glucosidase; details: cited from earlier work
[4] = parameters: species or system dogs; details: dog, in vivo
Description: Determination of the best glucosidase inhibitor and analysis of glucosidase inhibition. Although our work, confirmed by others, has shown that efficient secretion of the HBV glycoprotein MHBs and LHBs requires the function of the ER glucosidase, the specific glucosidase inhibitor that would be most sensible to use in vivo studies is not entirely obvious. […] However, NNDNJ has a dose limiting toxicity in dogs. Although this occurred at very high doses (more than 250 mg/kg), and we believe the toxicity was unrelated to the glucosidase inhibition mechanism), it seems wise to explore the possibility of alternative glucosidase inhibitors for the proposed study. Thus, Aim 1 will be to explore the possibility that other compounds, with less toxicity can be found. […] It is therefore an attractive back up compound. Thus, although NNDNJ could be used in the proposed studies as a “stalking horse” and for a proof of concept, it will be “parked” (held in reserve) as we test other glucosidase inhibitors in our portfolio. Identification of the most appropriate glucosidase inhibitor

[5] = rat, in vivo
Description: Based upon the toxicology data obtained from a 14 day rat study on N-nonyl-DNJ, the toxicity with the alkovirs is predicated to be minimal. With N-nonyl-DNJ, toxicity primarily consisted of GI upset as a result of inhibiting the gut α-glucosidase enzymes involved in carbohydrate digestion. It should be noted that even though toxicity was observed, the maximum tolerated dose was determined to be 250 mg/kg bid. This was well above the amount required to achieve serum drug concentrations that were anti-viral.

[6] = system: HBV M protein; format: cell-based
Description: Hep G2 cells were transfected with an M only expression vector and the next day the cells divided equally into 6 well trays. Compound was added one day latter at the indicated concentrations and the media changed every two days. The presence of sub-viral particles in the medium was detected via the Abbott Diagnostics Auszyme Monoclonal Diagnostic Kit as per manufacture's directions. For Graph: Y-axis is the OD at 492. X-axis indicates the compounds or cells used in the assay.
Hep G2 cells transfected with the HBV M expression vector were treated with the glucosidase inhibitor NB-DNJ (4.5 mM and 6 days latter the amount of M protein associated with the culture medium (secreted) and the cells (retained) determined by ELISA. See text for more details. For graph: x-axis, Drug treatment and location of protein; for y-axis, % of HBV M protein as compared to untreated
Hep G2 cells were transfected with the M only expression vector and seeded as daughter flasks into 6 well trays. Following 4 days of treatment of glucosidase inhibitor (NB-DNJ (4.5 mM)), drug was either removed (in samples labels as —R) or left on as a control. Day 0 is the time in which drug was removed. […] Day 3 and Day 5 are days after drug removal. For Graph: Y-axis is the OD at 492. X-axis indicates the compounds or cells used in the assay. UN=untreated sample; Un-R is the untreated rebound sample; NB=N-butyl-DNJ; NB-R=N-butyl-DNJ rebound sample.
HBV M protein secretion is sensitive to glucosidase inhibition. Our previous work has determined that the secretion of HBV sub-viral particles containing the M protein was sensitive to glucosidase inhibition. (Mehta et al., 1997). That is, when Hep G2 2.215 cells were treated with the glucosidase inhibitor NB-DNJ, purified sub-viral particles appeared to lack the M protein. However, it was unclear if this was the result of the M protein's sensitivity to glucosidase inhibition or required some other viral factor. To test this hypothesis, an expression vector (pCMV-MS^−X) directs the expression of HBV M, but no other viral protein, was created. This “M only” expression vector was then used to determine if the M protein itself, in the absence of other viral functions, was sensitive to glucosidase inhibition. In addition, an expression vector, unable to express “M”, but able to express “S” was made on the same plasmid backbone as the “M” only vector, as was used as a control (pCMV-M^−SX). For these studies three imino sugars were used: N-butyl-DNJ, N-nonyl-DNJ and N-nonyl-DGJ. N-butyl-DNJ is our standard glucosidase inhibitor and has been used by several labs for over 10 years (Carlson et al.,1995, Block et al., 1994). […] Briefly, Hep G2 cells were transfected with the expression vectors pCMV HBV MS^−X and pCMV HBV M^−SX and subsequently seeded into fresh 6 well trays. The transfected cells were treated with the indicated concentrations of NB-DNJ, NN-DNJ or NN-DGJ (as a negative control) and three days latter the media analyzed for the presence of the HBV M or HBV S protein as described in Mehta et al, 2001. […] Fore example, concentrations of NN-DNJ which have no impact upon glycan inhibition, as determined by glycan analysis or α-1-acid-glycoprotein secretion, had no effect upon HBV M protein secretion (data not shown). In contrast to the effect of the glucosidase inhibitors on M protein secretion, the secretion of the HBV S protein was insensitive to either NB-DNJ or NN-DNJ providing further proof that the S protein is insensitive to glucosidase inhibition (data not shown; Block et al., 1994, Mehta et al., 1997, Werr & Prange, 1998). To determine if the secretion of the HBV M protein was prevented by another non-glucosidase mechanism, other compounds with the same alkyl side chain (tail) but altered imino sugar head groups, were synthesized. For example, NN-DGJ has the same chain length as NN-DNJ but is not a glucosidase inhibitor. […]

[7] = system: glucosidase; assay: Glucosidase / glycan processing inhibition in cells; format: cell-based; details: 10 μg/ml

For CCCCCCCCCN1C[C@H](O)[C@@H](O)[C@H](O)[C@H]1CO [NN-DNJ, 1,5-dideoxy-1,5-nonylylimino-D-glucitol], the “uptake by liver cells” value [1] is given as “preferentially taken up by liver cells”, the “selectivity index (CC90 divided by IC90)” value [2] is given as about 100 and the inhibit glucosidase [3] is given as 15-20%. For the same molecule, the “dose at which dose limiting toxicity occurred” value [4] was “more than 250 mg/kg”, the maximum tolerated dose [5] was 250 mg/kg bid and the toxicity observed [5] was “GI upset”. For the same molecule, the “amount of M protein in the culture medium” value ([6]; 10 μg/ml) was “almost undetectable levels”, the “HBV M protein secretion at concentrations with no impact upon glycan inhibition” value ([6]; concentrations which have no impact upon glycan inhibition, data not shown) was “no effect” and the “secretion of the M protein” value ([6]; indicated concentrations, three days, FIG. 4) was “prevented the secretion of the M protein”. The inhibits glycan processing [7] was 15-20%.
